Tests used:
[1] = target: T1, CDK9 (Homo sapiens, UniProt P50750); experiment: Kinase TR-FRET assay, CDK9; type: biochemical; conditions: full-length human kinase, 10 μM ATP
T1 construct: full-length human kinases from Carna Biosciences; purchased Carna Biosciences 04-110
How it was run: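 Full-length human CDK9 (0.9 ng/μl) incubated 100 min at room temperature with 10 μM ATP, 100 nM ULight-MBP peptide and compound (0.1 nM–30 μM) in 50 mM HEPES pH 7.4, 1 mM EGTA, 10 mM MgCl2, 2 mM DTT, 0.01% Tween20. Stopped with 10 mM EDTA, then 1 nM Eu-anti-phospho-Thr232 MBP antibody added for 1 h. TR-FRET read at 665/620 nm with 340 nm excitation.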

[2] = target: T2, DYRK1A (Homo sapiens, UniProt Q13627); experiment: Kinase TR-FRET assay, DYRK1A; type: biochemical; design: full-length, wild-type human DYRK1A (NM_001396) with an HA tag; expressed in transfected cells; host or cells: human U2-OS osteosarcoma cells, transient transfection of a pcDNA3.1 plasmid; conditions: full-length human kinase, 10 μM ATP
How it was run: (§1)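 Compounds tested at 0.1 nM to 30 μM in reaction buffer; reaction stopped with 10 mM EDTA. Phosphorylated MBP detected with 1 nM Europium-labelled anti-phospho-Thr232 antibody by TR-FRET.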

[3] = target: T3, DYRK1B (Homo sapiens, UniProt Q9Y463); experiment: Kinase TR-FRET assay, DYRK1B; type: biochemical; conditions: full-length human kinase, 10 μM ATP
T3 construct: full-length human kinases from Carna Biosciences; purchased Carna Biosciences 04-131
How it was run: as §1

[4] = target: T2, DYRK1A; experiment: Cellular DYRK1 autophosphorylation assay in U2-OS cells; type: cell-based; design: full-length, wild-type human DYRK1A (NM_001396) with an HA tag; expressed in transfected cells; host or cells: human U2-OS osteosarcoma cells, transient transfection of a pcDNA3.1 plasmid; conditions: U2-OS cells transfected with HA-tagged human DYRK1A, 5 hours exposure; read-out: IC50 (μM) P-Ser520-Dyrk1A -Cell assay
How it was run: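 IC50 derived from dose-response curves of phospho-Ser520-DYRK1A (blots normalised to total DYRK1A), quantified by either immunoblotting with chemiluminescence or Mesoscale electrochemiluminescent ELISA. Compounds applied to U2-OS cells across several concentrations for 5 hours.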

[5] = target: T4, His-TEV-DYRK1A Kinase domain (aa127-485) (Homo sapiens, UniProt Q13627); experiment: Kinase ADP assay (ADP Hunter), DYRK1A kinase domain; type: biochemical; conditions: 20 μM ATP
T4 construct: His-TEV-DYRK1A Kinase domain (aa127-485); His tag (N); TEV protease cleavage site (N)
How it was run: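 Readout is ADP Hunter fluorescence at 590 nm, developed 20 min at 30 °C after the kinase step. That step ran 10 min at 30 °C in Hepes pH 7.4 (10 mM MgCl2, 1 mM EGTA, 0.02% Tween20) containing 20 μM ATP, 40 μM peptide and 20 nM enzyme plus compound.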

[6] = target: T5, CLK1 (Homo sapiens, UniProt P49759); experiment: Kinase TR-FRET assay, CLK1; type: biochemical; conditions: full-length human kinase, 10 μM ATP
T5 construct: full-length human kinases from Carna Biosciences; purchased Carna Biosciences 04-126
Description: Inhibition of the enzymatic activity of human kinases was evaluated in a Time-Resolved Fluorescence Resonance Energy Transfer (TR-FRET) assay in 384-well reaction plates. […] Test compounds of the invention were added in reaction buffer at a range of concentrations from 0.1 nM to 30 μM. Following addition of EDTA (Sigma E7889, 10 mM) to stop the reaction, Europium-labelled mouse monoclonal antibody recognizing phospho-Thr232 in MBP (Perkin Elmer TRF0201, 1 nM) was added.

T3 sequence (Q9Y463 whole entry): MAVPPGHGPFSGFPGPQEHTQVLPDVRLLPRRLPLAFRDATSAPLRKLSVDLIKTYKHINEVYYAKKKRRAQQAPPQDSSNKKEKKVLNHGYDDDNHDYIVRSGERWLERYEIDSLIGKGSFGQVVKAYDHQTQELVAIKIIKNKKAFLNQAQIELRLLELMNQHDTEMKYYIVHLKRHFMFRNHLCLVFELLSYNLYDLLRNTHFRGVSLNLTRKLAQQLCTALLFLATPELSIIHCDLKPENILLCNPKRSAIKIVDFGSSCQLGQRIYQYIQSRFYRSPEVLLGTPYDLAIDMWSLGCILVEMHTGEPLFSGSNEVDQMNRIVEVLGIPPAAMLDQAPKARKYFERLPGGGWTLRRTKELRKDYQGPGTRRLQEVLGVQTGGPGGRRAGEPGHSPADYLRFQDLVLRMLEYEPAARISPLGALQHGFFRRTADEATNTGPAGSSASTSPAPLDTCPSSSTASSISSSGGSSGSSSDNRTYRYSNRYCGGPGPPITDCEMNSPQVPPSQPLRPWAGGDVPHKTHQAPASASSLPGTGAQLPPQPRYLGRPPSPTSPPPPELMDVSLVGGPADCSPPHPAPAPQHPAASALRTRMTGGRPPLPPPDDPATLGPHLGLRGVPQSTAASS
T1 sequence (P50750 whole entry): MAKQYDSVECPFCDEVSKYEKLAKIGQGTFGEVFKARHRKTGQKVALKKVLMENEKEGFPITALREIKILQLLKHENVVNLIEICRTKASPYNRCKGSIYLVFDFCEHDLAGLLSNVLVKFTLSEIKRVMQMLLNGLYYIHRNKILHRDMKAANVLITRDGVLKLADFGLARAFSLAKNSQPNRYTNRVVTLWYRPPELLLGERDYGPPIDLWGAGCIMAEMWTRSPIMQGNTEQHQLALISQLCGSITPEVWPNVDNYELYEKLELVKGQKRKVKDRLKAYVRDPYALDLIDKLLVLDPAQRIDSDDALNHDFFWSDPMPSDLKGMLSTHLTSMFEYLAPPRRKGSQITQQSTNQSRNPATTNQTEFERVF
T1 sequence (O60563 whole entry partner): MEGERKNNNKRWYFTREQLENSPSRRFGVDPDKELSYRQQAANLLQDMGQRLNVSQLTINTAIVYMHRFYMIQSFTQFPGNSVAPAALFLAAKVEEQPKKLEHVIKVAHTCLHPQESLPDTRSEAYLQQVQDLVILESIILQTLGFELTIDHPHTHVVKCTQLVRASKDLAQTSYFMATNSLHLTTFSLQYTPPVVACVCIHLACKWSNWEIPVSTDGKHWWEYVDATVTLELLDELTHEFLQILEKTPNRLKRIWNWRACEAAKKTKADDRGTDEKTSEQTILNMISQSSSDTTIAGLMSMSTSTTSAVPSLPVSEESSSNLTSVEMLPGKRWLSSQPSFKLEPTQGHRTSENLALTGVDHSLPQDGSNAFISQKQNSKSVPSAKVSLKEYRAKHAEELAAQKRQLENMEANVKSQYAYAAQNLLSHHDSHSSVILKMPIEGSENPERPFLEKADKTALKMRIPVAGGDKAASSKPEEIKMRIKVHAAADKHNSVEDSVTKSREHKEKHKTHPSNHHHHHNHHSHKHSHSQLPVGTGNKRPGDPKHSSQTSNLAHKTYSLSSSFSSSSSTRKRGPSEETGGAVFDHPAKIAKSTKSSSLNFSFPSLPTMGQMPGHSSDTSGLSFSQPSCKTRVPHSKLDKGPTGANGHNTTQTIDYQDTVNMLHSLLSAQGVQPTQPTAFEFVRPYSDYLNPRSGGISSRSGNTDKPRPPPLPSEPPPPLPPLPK
T5 sequence (P49759 1-526 isoform P49759-3): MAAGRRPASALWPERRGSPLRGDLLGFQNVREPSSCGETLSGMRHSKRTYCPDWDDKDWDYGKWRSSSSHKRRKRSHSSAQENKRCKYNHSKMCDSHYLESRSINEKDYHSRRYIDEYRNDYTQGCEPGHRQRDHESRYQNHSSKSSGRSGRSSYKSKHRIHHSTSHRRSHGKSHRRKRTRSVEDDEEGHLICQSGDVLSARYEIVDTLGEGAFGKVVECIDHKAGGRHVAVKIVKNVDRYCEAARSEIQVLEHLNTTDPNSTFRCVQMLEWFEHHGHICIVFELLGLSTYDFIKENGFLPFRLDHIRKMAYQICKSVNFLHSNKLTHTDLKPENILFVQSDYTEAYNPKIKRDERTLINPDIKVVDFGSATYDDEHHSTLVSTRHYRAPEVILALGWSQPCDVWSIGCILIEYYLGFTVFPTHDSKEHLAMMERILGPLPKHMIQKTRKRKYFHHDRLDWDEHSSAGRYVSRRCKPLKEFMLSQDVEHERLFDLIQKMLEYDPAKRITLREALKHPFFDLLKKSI

Compound	IC50 [1] [µM]	IC50 [2] [µM]	IC50 [3] [µM]	IC50 [4] [µM]	IC50 [5] [µM]	IC50 [6] [µM]
Cc1nc2ccc(-c3cc(N)nc(N)c3)nc2n1C1CCOCC1 [Example 49, 4-[2-methyl-3-(tetrahydro-2H-pyran-4-yl)-3H-imidazo[4,5-b]pyridin-5-yl]pyridine-2,6-diamine]	0.979	0.003	0.017	0.13	0.011	0.017
COc1cc(Cn2c(C)nc3ccc(-c4cc(N)nc(N)c4)nc32)ccn1 [Example 72, 4-{3-[(2-methoxypyridin-4-yl)methyl]-2-methyl-3H-imidazo[4,5-b]pyridin-5-yl}pyridine-2,6-diamine]	> 10	0.01	0.014	0.184	0.015	0.09
Cc1nc2ccc(-c3cc(N)nc(N)c3)nc2n1CCc1ccc2c(c1)OCO2 [Example 73, 4-(3-[2-(1,3-benzodioxol-5-yl)ethyl]-2-methyl-3H-imidazo[4,5-b]pyridin-5-yl)pyridine-2,6-diamine]	4.66	0.004	0.008	0.065	0.009	0.019
Cc1nc2ccc(-c3cc(N)nc(N)c3)nc2n1CCc1cccc(C(F)(F)F)c1 [Example 91, 4-(2-methyl-3-{2-[3-(trifluoromethyl)phenyl]ethyl}-3H-imidazo[4,5-b]pyridin-5-yl)pyridine-2,6-diamine]	2.92	0.004	0.008	0.062	0.013	0.016
Cc1nc2ccc(-c3cc(N)nc(N)c3)nc2n1CCc1ccc(F)cc1 [Example 96, 4-{3-[2-(4-fluorophenyl)ethyl]-2-methyl-3H-imidazo[4,5-b]pyridin-5-yl}pyridine-2,6-diamine]	3.09	0.004	0.01	0.075	0.011	0.02
Cc1nc2ccc(-c3cc(N)nc(N)c3)nc2n1CC(F)F [Example 115, 4-[3-(2,2-difluoroethyl)-2-methyl-3H-imidazo[4,5-b]pyridin-5-yl]pyridine-2,6-diamine]	5.69	0.003	0.006	0.034	0.013	0.028
CCCCc1nc2ccc(-c3cc(N)nc(N)c3)nc2n1CCCC [Example 144, 4-(2,3-dibutyl-3H-imidazo[4,5-b]pyridin-5-yl)pyridine-2,6-diamine]	> 3	0.008	0.012	0.128	0.016	0.238
Cc1nc2ccc(-c3cc(N)nc(N)c3)nc2n1CCOc1ccccc1 [Example 153, 4-[2-methyl-3-(2-phenoxyethyl)-3H-imidazo[4,5-b]pyridin-5-yl]pyridine-2,6-diamine]	1.02	0.001	0.003	0.035	0.01	0.016
CCCCn1c(CC)nc2ccc(-c3cc(N)nc(N)c3)nc21 [Example 157, 4-(3-butyl-2-ethyl-3H-imidazo[4,5-b]pyridin-5-yl)pyridine-2,6-diamine]	> 10	0.011	0.003	0.153	0.021	0.058
Cc1nc2ccc(-c3cc(N)nc(N)c3)nc2n1C[C@H](C)Oc1cccc(Br)n1 [Example 180]	0.467	0.005	0.01	0.044	0.013	0.016
Cc1nc2ccc(-c3cc(N)nc(N)c3)nc2n1CCOc1cccc(F)c1 [Example 199, 4-{3-[2-(3-fluorophenoxy)ethyl]-2-methyl-3H-imidazo[4,5-b]pyridin-5-yl}pyridine-2,6-diamine]	1.1	0.003	0.007	0.053	0.012	0.016
Cc1nc2ccc(-c3cc(N)nc(N)c3)nc2n1CCOc1cccc(Cl)c1 [Example 200]	1.52	0.005	0.01	0.069	0.018	0.02

More lines, now with the values ahead:

IC50 [1] [µM]	IC50 [2] [µM]	IC50 [3] [µM]	IC50 [4] [µM]	IC50 [5] [µM]	IC50 [6] [µM]	Compound
4.37	0.006	0.001	0.038	0.007	0.029	C=CCn1c(C)nc2ccc(-c3cc(N)nc(N)c3)nc21 [Example 51, 4-[2-methyl-3-(prop-2-en-1-yl)-3H-imidazo[4,5-b]pyridin-5-yl]pyridine-2,6-diamine]
> 10	0.001	0.005	0.022	0.006	0.018	CCCCCn1c(C)nc2ccc(-c3cc(N)nc(N)c3)nc21 [Example 65, 4-(2-methyl-3-pentyl-3H-imidazo[4,5-b]pyridin-5-yl)pyridine-2,6-diamine]
0.476	0.006	0.01	0.092	0.014	0.021	Cc1nc2ccc(-c3cc(N)nc(N)c3)nc2n1CC1CC1(Cl)Cl (stereo not drawn) [Example 74, 4-{3-[(2,2-dichlorocyclopropyl)methyl]-2-methyl-3H-imidazo[4,5-b]pyridin-5-yl}pyridine-2,6-diamine]
0.843	0.003	0.006	0.035	0.012	0.019	Cc1nc2ccc(-c3cc(N)nc(N)c3)nc2n1CCC(C)C [Example 75, 4-[2-methyl-3-(3-methylbutyl)-3H-imidazo[4,5-b]pyridin-5-yl]pyridine-2,6-diamine]
1.46	0.004	0.009	0.068	0.014	0.024	Cc1nc2ccc(-c3cc(N)nc(N)c3)nc2n1CC1CCCC1 [Example 89, 4-[3-(cyclopentylmethyl)-2-methyl-3H-imidazo[4,5-b]pyridin-5-yl]pyridine-2,6-diamine]
0.564	0.002	0.007	0.058	0.006	0.017	Cc1nc2ccc(-c3cc(N)nc(N)c3)nc2n1CCC1CCCC1 [Example 92, 4-[3-(2-cyclopentylethyl)-2-methyl-3H-imidazo[4,5-b]pyridin-5-yl]pyridine-2,6-diamine]
1.08	0.003	0.007	0.017	0.005	0.016	CCCCCCn1c(C)nc2ccc(-c3cc(N)nc(N)c3)nc21 [Example 94, 4-(3-hexyl-2-methyl-3H-imidazo[4,5-b]pyridin-5-yl)pyridine-2,6-diamine]
1.8	0.003	0.011	0.021	0.012	0.029	COC1CCCCC1CCn1c(C)nc2ccc(-c3cc(N)nc(N)c3)nc21 (stereo not drawn) [Example 95, 4-{3-[2-(2-methoxycyclohexyl)ethyl]-2-methyl-3H-imidazo[4,5-b]pyridin-5-yl}pyridine-2,6-diamine]
1.24	0.002	0.006	0.1	0.007	0.016	CCCCn1c(C)nc2ccc(-c3cc(N)nc(N)c3)nc21 [Example 148, 4-(3-butyl-2-methyl-3H-imidazo[4,5-b]pyridin-5-yl)pyridine-2,6-diamine]
2.87	0.004	0.008	0.17	0.013	0.019	COCCCCn1c(C)nc2ccc(-c3cc(N)nc(N)c3)nc21 [Example 151, 4-[3-(4-methoxybutyl)-2-methyl-3H-imidazo[4,5-b]pyridin-5-yl]pyridine-2,6-diamine]

Reference: US20180273528A1 (LES LABORATOIRES SERVIER, priority 2015, published 2018)
